In patent publication US12435044B2, “Pyridazinone herbicides and pyridazinone intermediates used to prepare a herbicide” (FMC Corporation, priority 2018, dated 2025):

Legend:
Type in all cases: in vivo
[1] = test system: barnyardgrass (Echinochloa crus-galli); assay: Test A pre-/postemergence greenhouse test
Text: (§1) Seeds of plant species selected from barnyardgrass (Echinochloa crus-galli), kochia (Kochia scoparia), ragweed (common ragweed, Ambrosia elatior), ryegrass, Italian (Lolium multiflorum), foxtail, giant (Setaria faberii), foxtail, green (Setaria viridis) and pigweed (Amaranthus retroflexus) were planted into a blend of loam soil and sand and treated preemergence with a directed soil spray using test chemicals formulated in a non-phytotoxic solvent mixture which included a surfactant.
(§2) At the same time, plants selected from these weed species and also wheat (Triticum aestivum), corn (Zea mays), blackgrass (Alopecurus myosuroides) and galium (catchweed bedstraw, Galium aparine) were planted in pots containing the same blend of loam soil and sand and treated with postemergence applications of test chemicals formulated in the same manner. Plants ranged in height from 2 to 10 cm and were in the one- to two-leaf stage for the postemergence treatment. Treated plants and untreated controls were maintained in a greenhouse for approximately 10 d, after which time all treated plants were compared to untreated controls and visually evaluated for injury. Plant response ratings, summarized in Table A, are based on a 0 to 100 scale where 0 is no effect and 100 is complete control. A dash (-) response means no test result.

[2] = test system: ryegrass, Italian (Lolium multiflorum); assay: Test A pre-/postemergence greenhouse test
Text: as §1, §2

[3] = test system: ragweed (common ragweed, Ambrosia elatior); assay: Test A pre-/postemergence greenhouse test
Text: as §1, §2

[4] = test system: pigweed (Amaranthus retroflexus); assay: Test A pre-/postemergence greenhouse test
Text: as §1, §2

kochia (Kochia scoparia) [5] = assay: Test A pre-/postemergence greenhouse test
Text: as §1, §2

oat, wild (Avena fatua) = assay: Test D pre-/postemergence controlled growth environment test; settings: Postemergence
Text: (§3) Seeds of plant species selected from blackgrass (Alopecurus myosuroides), galium (catchweed bedstraw, Galium aparine), kochia (Kochia scoparia), oilseed rape (Brassica napus), barley, spring (Hordeum vulgare), wheat, spring (Triticum aestivum), oat, wild (Avena fatua), barley, winter (Hordeum vulgare) and wheat, winter (Triticum aestivum) were planted into a silt loam soil and treated preemergence with test chemicals formulated in a non-phytotoxic solvent mixture which included a surfactant.
(§4) At the same time, plants selected from these crop and weed species and also bluegrass (annual bluegrass, Poa annua), canarygrass (littleseed canarygrass, Phalaris minor), chickweed (common chickweed, Stellaria media), bromegrass, downy (downy bromegrass, Bromus tectorum), field poppy (Papaver rhoeas), field violet (Viola arvensis), foxtail, green (Setaria viridis), deadnettle (henbit deadnettle, Lamium amplexicaule), ryegrass, Italian (Lolium multiflorum), lambsquarters (Chenopodium album), pigweed (Amaranthus retroflexus), chamomile (scentless chamomile, Matricaria inodora), Russian thistle (Salsola kali), speedwell (bird's-eye speedwell, Veronica persica), buckwheat, wild (Polygonum convolvulus), mustard, wild (Sinapis arvensis), radish, wild (Raphanus raphanistrum), windgrass (Apera spica-venti), geranium, cutleaf (Geranium dissectum) and Canada thistle (Cirsium arvense) were planted in pots containing Redi-Earth® planting medium (Scotts Company, 14111 Scottslawn Road, Marysville, Ohio 43041) comprising spaghnum peat moss, vermiculite, wetting agent and starter nutrients and treated with postemergence applications of the test chemicals formulated in the same manner. Plants ranged in height from 2 to 18 cm (1- to 4-leaf stage). Treated plants and controls were maintained in a controlled growth environment for 14 to 21 d after which time all species were compared to controls and visually evaluated. Plant response ratings, summarized in Table D, are based on a scale of 0 to 100 where 0 is no effect and 100 is complete control. A dash (-) response means no test result.

[6] = test system: galium (catchweed bedstraw, Galium aparine); assay: as above; settings: Postemergence
Text: as §3, §4

[7] = test system: wheat, winter (Triticum aestivum); assay: as above; settings: Postemergence
Text: as §3, §4

[8] = test system: wheat, spring (Triticum aestivum); assay: as above; settings: Postemergence
Text: as §3, §4

[9] = test system: blackgrass (Alopecurus myosuroides); assay: as above; settings: Postemergence
Text: as §3, §4

kochia (Kochia scoparia) [10] = assay: as above; settings: Postemergence
Text: as §3, §4

[11] = test system: barley, spring (Hordeum vulgare); assay: as above; settings: Postemergence
Text: as §3, §4

SMILES | Plant response rating (0 to 100 scale) ([1]; Postemergence, 31 g ai/ha) | Plant response rating (0 to 100 scale) ([1]; Postemergence, 125 g ai/ha) | Plant response rating (0 to 100 scale) ([1]; Preemergence, 31 g ai/ha) | Plant response rating (0 to 100 scale) ([1]; Preemergence, 125 g ai/ha) | Plant response rating (0 to 100 scale) ([2]; Postemergence, 31 g ai/ha) | Plant response rating (0 to 100 scale) ([2]; Postemergence, 125 g ai/ha) | Plant response rating (0 to 100 scale) ([2]; Preemergence, 31 g ai/ha) | Plant response rating (0 to 100 scale) ([2]; Preemergence, 125 g ai/ha) | Plant response rating (0 to 100 scale) ([3]; Postemergence, 31 g ai/ha) | Plant response rating (0 to 100 scale) ([3]; Postemergence, 125 g ai/ha) | Plant response rating (0 to 100 scale) ([3]; Preemergence, 31 g ai/ha) | Plant response rating (0 to 100 scale) ([3]; Preemergence, 125 g ai/ha) | Plant response rating (0 to 100 scale) ([4]; Postemergence, 31 g ai/ha) | Plant response rating (0 to 100 scale) ([4]; Postemergence, 125 g ai/ha) | Plant response rating (0 to 100 scale) ([4]; Preemergence, 31 g ai/ha) | Plant response rating (0 to 100 scale) ([4]; Preemergence, 125 g ai/ha) | Plant response rating (0 to 100 scale) (kochia (Kochia scoparia) [5]; Postemergence, 31 g ai/ha) | Plant response rating (0 to 100 scale) (kochia (Kochia scoparia) [5]; Postemergence, 125 g ai/ha) | Plant response rating (0 to 100 scale) (kochia (Kochia scoparia) [5]; Preemergence, 31 g ai/ha) | Plant response rating (0 to 100 scale) (kochia (Kochia scoparia) [5]; Preemergence, 125 g ai/ha) | also measured
Cc1ccc2ccc(F)cc2c1-c1c(O)c(Cl)nn(C)c1=O [Cpd. No. 21] | 80 | 90 | 90 | 100 | 90 | 100 | 80 | 100 | 100 | 100 | 100 | 100 | 100 | 100 | 100 | 100 | 80 | 90 | 50 | 100 | –
Cc1ccc2ccc(Cl)cc2c1-c1c(O)c(Cl)nn(C)c1=O [Cpd. No. 22] | 100 | 100 | 100 | 100 | 100 | 100 | 90 | 100 | 100 | 100 | 100 | 100 | 100 | 100 | 100 | 100 | 60 | 100 | 10 | 90 | Plant response rating, Oat, Wild (oat, wild (Avena fatua); 31 g ai/ha): 93; Plant response rating, Oat, Wild (oat, wild (Avena fatua); 62 g ai/ha): 98; Plant response rating, Galium ([6]; 31 g ai/ha): 92; Plant response rating, Galium ([6]; 62 g ai/ha): 96; Plant response rating, Wheat, Winter ([7]; 31 g ai/ha): 85; Plant response rating, Wheat, Winter ([7]; 62 g ai/ha): 95; Plant response rating, Wheat, Spring ([8]; 31 g ai/ha): 90; Plant response rating, Wheat, Spring ([8]; 62 g ai/ha): 96; Plant response rating, Blackgrass ([9]; 31 g ai/ha): 75; Plant response rating, Blackgrass ([9]; 62 g ai/ha): 82; Plant response rating, Kochia (kochia (Kochia scoparia) [10]; 31 g ai/ha): 37; Plant response rating, Kochia (kochia (Kochia scoparia) [10]; 62 g ai/ha): 58; Plant response rating, Barley, Spring ([11]; 31 g ai/ha): 67; Plant response rating, Barley, Spring ([11]; 62 g ai/ha): 85
